In ChEMBL document CHEMBL6092217 (Eur J Med Chem, 2024):

Assays:
PC-3 = experiment: Antiproliferative activity against human PC-3 cells assessed as cell viability incubated for 72 hrs by MTT assay; format: functional, cell-based; conditions: PC-3, 72 h
RKO = experiment: Antiproliferative activity against human RKO cells assessed as cell viability incubated for 72 hrs by MTT assay; format: functional, cell-based
MCF7 = experiment: Antiproliferative activity against human MCF7 cells assessed as cell viability incubated for 72 hrs by MTT assay; format: functional, cell-based; conditions: MCF7, 72 h
HepG2 = experiment: Antiproliferative activity against human HepG2 cells assessed as cell viability incubated for 72 hrs by MTT assay; format: functional, cell-based; conditions: HepG2, 72 h
HT-29 [1] = experiment: Antiproliferative activity against human HT-29 cells assessed as cell viability incubated for 72 hrs by MTT assay; format: functional, cell-based; conditions: HT-29, 72 h
[2] = Resistance index, ratio of IC50 for human A549/TxR cells to IC50 for human A549 cells; format: functional
HT-29 [3] = experiment: Induction of cell cycle arrest in human HT-29 cells assessed as accumulation of cells at G1 phase at 10 nM incubated for 24 hrs by flow cytometry analysis (reference value: 67.6%); format: functional
HT-29 [4] = experiment: Induction of cell cycle arrest in human HT-29 cells assessed as accumulation of cells at S phase at 10 nM incubated for 24 hrs by flow cytometry analysis (reference value: 20.8 %); format: functional
HT-29 [5] = experiment: Induction of cell cycle arrest in human HT-29 cells assessed as accumulation of cells at G2 phase at 10 nM incubated for 24 hrs by flow cytometry analysis (reference value: 13 %); format: functional
HT-29 [6] = experiment: Induction of apoptosis in human HT-29 cells assessed as viable cells at 20 nM incubated for 24 hrs by FITC/PI staining based flow cytometry analysis (reference value: 91.6%); format: functional; conditions: read-out: Activity
HT-29 [7] = experiment: Induction of apoptosis in human HT-29 cells assessed as early apoptotic cells at 20 nM incubated for 24 hrs by FITC/PI staining based flow cytometry analysis (reference value: 8.14%); format: functional
HT-29 [8] = experiment: Induction of apoptosis in human HT-29 cells assessed as late apoptotic cells at 20 nM incubated for 24 hrs by FITC/PI staining based flow cytometry analysis (reference value: 0.20%); format: functional
HT-29 [9] = experiment: Induction of apoptosis in human HT-29 cells assessed as necrotic cells at 20 nM incubated for 24 hrs by FITC/PI staining based flow cytometry analysis (reference value: 0.017 %); format: functional
MDA-MB-231 = experiment: cells; conditions: Homo sapiens, MDA-MB-231, 72 h
Description: Antiproliferative activity against human MDA-MB-231 cells assessed as cell viability incubated for 72 hrs by MTT assay

## CC(=O)O[C@H]1C(=O)[C@@]2(C)[C@H]([C@H](OC(=O)c3ccccc3)[C@]3(O)C[C@H](OC(=O)[C@H](O)[C@@H](NC(=O)c4ccccc4)c4ccccc4)C(C)=C1C3(C)C)[C@]1(OC(C)=O)CO[C@@H]1C[C@@H]2O [PACLITAXEL]
PC-3
  IC50: 28 nM
RKO
  IC50: 3 nM
MCF7
  IC50: 37 nM
HepG2
  IC50: 36 nM
HT-29 [1]
  IC50: 13 nM
[2]
  Ratio IC50: 11.29
HT-29 [3]
  Activity: 60.2%
HT-29 [4]
  Activity: 15.1%
HT-29 [5]
  Activity: 22.6%
HT-29 [6]
  viability at 0.02 µM: 70.6%
HT-29 [7]
  Activity: 5.4%
HT-29 [8]
  Activity: 22.7%
HT-29 [9]
  Activity: 1.32%
MDA-MB-231
  IC50: 22 nM
